Measured values reported in patent US20040127395A1 (priority 2002, published 2004).
pKi: −log10 of the molar value.

Assays:
[1] = test system: mouse bone marrow-derived mast cells; experiment: Histamine-induced mast cell chemotaxis in vitro (transwell); format: cell-based; conditions: Mus musculus, Mast cell
Experimental: Mast cells were differentiated from bone marrow derived from BALB/c or C57bl/6j mice. Mice were sacrificed by asphyxiation under 95% CO2 and femurs were removed. Bone marrow was aseptically isolated from the femurs. The cells (5×10^5/mL) were cultured at 37° C. with 5% CO2 in culture medium consisting of RPMI with 10% FCS, 0.1 mM non-essential amino acids, 50 μg/mL penicillin/streptomycin and 20% conditioned WEHI-3 medium. Conditioned WEHI-3 medium was prepared from WEHI-3 cells (ATCC), which were cultured in Iscoves Dulbeccos medium with 10% FCS, 4 mM L-glutamine, 1.5 g/L sodium carbonate, 0.05 μM beta-mercaptoethanol and 50 μg/mL penicillin/streptomycin. The filtered supernatant was used as the conditioned WEHI-3 medium. After 16 h in culture, the bone marrow cells were transferred to a new flask. The medium was refreshed once per week. After four weeks, the cells were tested by flow cytometry for IgE receptor and CD117 (c-kit) expression. Mast cells were incubated with anti-DNP IgE (ICN Pharmaceuticals, Costa Mesa, Calif.) or vehicle for 30 min, followed by FITC labeled anti-IgE (Pharmingen) or FITC labeled CD117 (Pharmingen) for 30 min on ice. The cultured mast cells consisted of a homogeneous population which was >99% IgE receptor positive and >99% CD117 positive. Mast cells of four to eight weeks culture time were used for experiments.
Transwells (Costar, Cambridge, Mass.) of a pore size of […] were coated with 100 μL of 100 ng/mL human fibronectin (Sigma) for 2 h at room temperature. […] Mast cells (2×10^5/well) were added to the top chamber. The plates were incubated for 3 h at 37° C. Transwells were removed and the number of cells in the bottom chamber was counted for 60 sec using a flow cytometer.

[2] = target: human histamine H4 receptor (Homo sapiens, UniProt Q9H3N8); experiment: biochemical
Chain of human histamine H4 receptor (Q9H3N8 whole entry): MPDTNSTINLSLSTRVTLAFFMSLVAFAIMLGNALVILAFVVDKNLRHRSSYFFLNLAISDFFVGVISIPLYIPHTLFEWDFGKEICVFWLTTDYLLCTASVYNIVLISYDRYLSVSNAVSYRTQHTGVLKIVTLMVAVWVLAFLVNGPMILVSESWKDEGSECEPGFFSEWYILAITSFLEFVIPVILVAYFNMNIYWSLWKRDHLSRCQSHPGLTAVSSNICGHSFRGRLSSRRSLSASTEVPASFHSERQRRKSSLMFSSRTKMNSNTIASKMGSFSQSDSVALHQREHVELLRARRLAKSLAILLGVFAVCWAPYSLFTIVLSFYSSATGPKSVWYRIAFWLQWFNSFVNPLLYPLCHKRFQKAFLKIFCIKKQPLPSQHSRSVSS

Row | Structure (SMILES) | inhibition at 1 µM [1] [%] | inhibition at 10 µM [1] [%] | pKi [2]
1 | O=C(c1cc2cc(Cl)sc2[nH]1)N1CCN2CCCC2C1 (stereo not drawn) [(2-Chloro-6H-thieno[2,3-b]pyrrol-5-yl)-(hexahydro-pyrrolo[1,2-a]pyrazin-2-yl)-methanone] | 0 | 0 | –
2 | CN1CCN(C(=S)c2cc3ccccc3[nH]2)CC1 [(1H-Indol-2-yl)-(4-methyl-piperazin-1-yl)-methanethione] | – | – | 6.88
3 | C[C@H]1CN(C(=O)c2cc3cc(Cl)ccc3[nH]2)CCN1 [(5-Chloro-1H-indol-2-yl)-((S)-3-methyl-piperazin-1-yl)-methanone] | – | – | 7.44
4 | O=C(c1cc2cc(Cl)ccc2[nH]1)N1CCN(CCO)CC1 [(5-Chloro-1H-indol-2-yl)-[4-(2-hydroxy-ethyl)-piperazin-1-yl]-methanone] | – | – | 7.60
5 | CN1CCN(C(=O)c2cc3c(Cl)c(Cl)ccc3[nH]2)CC1 [(4,5-Dichloro-1H-indol-2-yl)-(4-methyl-piperazin-1-yl)-methanone] | – | – | 7.96
6 | Cc1ccc2[nH]c(C(=O)NC3CC4CCC(C3)N4C)nc2c1 (stereo not drawn) [5-Methyl-1H-benzoimidazole-2-carboxylic acid(8-methyl-8-aza-bicyclo[3.2.1]oct-3-yl)-amide] | 66 | 27 | –
7 | CN1CCN(C(=O)c2cc3c(Br)cccc3[nH]2)CC1 [(4-Bromo-1H-indol-2-yl)-(4-methyl-piperazin-1-yl)-methanone] | – | – | 7.40
8 | Cc1cc(Cl)cc2cc(C(=O)N3CCN(C)CC3)[nH]c12 [(5-Chloro-7-methyl-1H-indol-2-yl)-(4-methyl-piperazin-1-yl)-methanone] | 100 | 97 | 9.00
9 | CN1CCN(C(=O)c2cc3cc(F)ccc3[nH]2)CC1 [(5-Fluoro-1H-indol-2-yl)-(4-methyl-piperazin-1-yl)-methanone] | – | – | 7.74
10 | Cc1cc(C)c2[nH]c(C(=O)N3CCN(C)CC3)cc2c1 [(5,7-Dimethyl-1H-indol-2-yl)-(4-methyl-piperazin-1-yl)-methanone] | – | – | 7.52
11 | CN1CCN(C(=O)c2cc3ccc(Br)cc3[nH]2)CC1 [(6-Bromo-1H-indol-2-yl)-(4-methyl-piperazin-1-yl)-methanone] | – | – | 6.73
12 | C[C@@H]1CN(C(=O)c2cc3cc(Cl)ccc3[nH]2)CCN1 [(5-Chloro-1H-indol-2-yl)-((R)-3-methyl-piperazin-1-yl)-methanone] | – | – | 7.47
13 | Nc1cccc2cc(C(=O)N3CCNCC3)[nH]c12 [(7-Amino-1H-indol-2-yl)-piperazin-1-yl-methanone] | – | – | 7.37
14 | CC1CN(C(=O)c2cc3ccccc3[nH]2)CCN1 (stereo not drawn) [(1H-Indol-2-yl)-(3-methyl-piperazin-1-yl)-methanone] | – | – | 7.00
15 | CN1CCN(C(=O)c2cc3cccc(Br)c3[nH]2)CC1 [(7-Bromo-1H-indol-2-yl)-(4-methyl-piperazin-1-yl)-methanone] | – | – | 7.26
16 | COc1cccc(-c2ccc3[nH]c(C(=O)N4CCN(C)CC4)cc3c2)c1 [[5-(3-Methoxy-phenyl)-1H-indol-2-yl]-(4-methyl-piperazin-1-yl)-methanone] | – | – | 6.84
17 | CN1CCN(C(=O)c2cc3sc(Cl)cc3[nH]2)CC1 [(2-Chloro-4H-thieno[3,2-b]pyrrol-5-yl)-(4-methyl-piperazin-1-yl)-methanone] | 92 | – | –
18 | O=C(c1cc2cc(Cl)ccc2[nH]1)N1CCNCC1 [(5-Chloro-1H-indol-2-yl)-piperazin-1-yl-methanone] | 99 | – | 8.00
19 | CN1CCN(C(=O)c2cc3cc(Cl)cc(Cl)c3[nH]2)CC1 [(5,7-Dichloro-1H-indol-2-yl)-(4-methyl-piperazin-1-yl)-methanone] | – | – | 8.00

Row | Structure (SMILES) | inhibition at 1 µM [1] [%] | inhibition at 10 µM [1] [%] | pKi [2]
20 | CC1CN(C(=O)c2cc3scc(Br)c3[nH]2)CCN1 (stereo not drawn) [(3-Bromo-4H-thieno[3,2-b]pyrrol-5-yl)-(3-methyl-piperazin-1-yl)-methanone] | 0 | 0 | –
21 | CN1CCN(C(=O)c2cc3ccc(O)cc3[nH]2)CC1 [(6-Hydroxy-1H-indol-2-yl)-(4-methyl-piperazin-1-yl)-methanone] | – | – | 7.49
22 | Cc1ccc2[nH]c(C(=O)N3CCN(C)CC3)cc2c1 [(5-Methyl-1H-indol-2-yl)-(4-methyl-piperazin-1-yl)-methanone] | – | – | 7.96
23 | CN1CCN(C(=O)c2cc3cc(Br)ccc3o2)CC1 [(5-Bromo-benzofuran-2-yl)-(4-methyl-piperazin-1-yl)-methanone] | – | – | 7.02
24 | O=C(c1nc2cc(Cl)ccc2[nH]1)N1CCNCC1 [(5-Chloro-1H-benzoimidazol-2-yl)-piperazin-1-yl-methanone] | 8 | 101 | –
25 | Cc1cccc2cc(C(=O)N3CCN(C)CC3)[nH]c12 [(7-Methyl-1H-indol-2-yl)-(4-methyl-piperazin-1-yl)-methanone] | – | – | 8.18
26 | CN1CCN(C(=O)c2nc3cc(F)c(F)cc3[nH]2)CC1 [(5,6-Difluoro-1H-benzoimidazol-2-yl)-(4-methyl-piperazin-1-yl)-methanone] | 72 | 97 | –
27 | CN1CCN(C(=O)c2cc3cc(O)ccc3[nH]2)CC1 [(5-Hydroxy-1H-indol-2-yl)-(4-methyl-piperazin-1-yl)-methanone] | – | – | 7.72
28 | CN1CCN(C(=O)c2cc3cccc(N)c3[nH]2)CC1 [(7-Amino-1H-indol-2-yl)-(4-methyl-piperazin-1-yl)-methanone] | 99 | – | 8.15
29 | CN1CCN(C(=O)c2cc3cc(Cl)sc3[nH]2)CC1 [(2-Chloro-6H-thieno[2,3-b]pyrrol-5-yl)-(4-methyl-piperazin-1-yl)-methanone] | 103 | 106 | –
30 | CN1CCN(C(=O)c2cc3cc([N+](=O)[O-])ccc3[nH]2)CC1 [(4-Methyl-piperazin-1-yl)-(5-nitro-1H-indol-2-yl)-methanone] | – | – | 7.34
31 | CC1CN(C(=O)c2cc3cc(Cl)ccc3[nH]2)CCN1C (stereo not drawn) [(5-Chloro-1H-indol-2-yl)-(3,4-dimethyl-piperazin-1-yl)-methanone] | – | – | 7.57
32 | Cc1csc2cc(C(=O)N3CCN(C)CC3)[nH]c12 [(4-Methyl-piperazin-1-yl)-(3-methyl-4H-thieno[3,2-b]pyrrol-5-yl)-methanone] | 60 | – | –
33 | CN1CCN(C(=O)c2cc3cc(F)cc(F)c3[nH]2)CC1 [(5,7-Difluoro-1H-indol-2-yl)-(4-methyl-piperazin-1-yl)-methanone] | 100 | – | 7.72
34 | CN1CCN(C(=O)c2cc3cccc(Cl)c3[nH]2)CC1 [(7-Chloro-1H-indol-2-yl)-(4-methyl-piperazin-1-yl)-methanone] | – | – | 7.64
35 | CN1CCN(C(=O)c2cc3cccc(O)c3[nH]2)CC1 [(7-Hydroxy-1H-indol-2-yl)-(4-methyl-piperazin-1-yl)-methanone] | – | – | 7.33
36 | CC1CN(C(=O)c2cc3cc(Cl)ccc3[nH]2)CCN1 (stereo not drawn) [(5-Chloro-1H-indol-2-yl)-(3-methyl-piperazin-1-yl)-methanone] | – | – | 7.39
37 | CN1CCN(C(=O)c2cc3ccc(Cl)cc3[nH]2)CC1 [(6-Chloro-1H-indol-2-yl)-(4-methyl-piperazin-1-yl)-methanone] | – | – | 6.91
